Each structure is given as a SMILES string.

The data set can be described thus: physchem. Particulars: octanol/water.
Description: Lipophilicity, log P of the compound
In the case of `CN(C)CCN/C=C1\C[C@@]2(C)[C@@H](CC[C@@H]3[C@@H]2CC[C@@]2(C)[C@H]3CC[C@]2(C)O)CC1=O`, the logP (usually a log measure of how a compound divides between an organic and an aqueous phase) was determined as 2.53.
For `C[C@]12CC/C(=N/NC(N)=O)C[C@@H]1CC[C@@H]1[C@@H]2CC[C@]2(C)[C@@H](O)CC[C@@H]12`, the logP is 3.45.
The compound `CC(=O)O[C@H]1CC[C@H]2[C@@H]3CC[C@H]4C[C@H]5[C@@H](C[C@]4(C)[C@H]3CC[C@]12C)C5(F)F` came in with a logP of 4.77.
With `C[C@]12C/C(=C\N)C(=O)C[C@@H]1CC[C@@H]1[C@@H]2CC[C@@]2(C)[C@H]1CC[C@]2(C)O` the figure was 2.8.
With `C[C@@H]1CC2=CC(=O)CC[C@]2(C)[C@H]2CC[C@]3(C)[C@@H](O)CC[C@H]3[C@H]12` the figure was 4.17; with `C[C@]12C[C@@H]3[C@H](C[C@@H]1CC[C@@H]1[C@@H]2CC[C@@]2(C)[C@H]1CC[C@]2(C)O)C3(F)F`, 4.72; with `CC(=O)O[C@H]1CC[C@H]2[C@@H]3CC[C@H]4C[C@@H]5[C@H](C[C@]4(C)[C@H]3CC[C@]12C)C5(F)F`, 4.77.
With `CCCO[C@@]1(C)CC[C@H]2[C@@H]3CC[C@H]4CC(=O)[C@H](C)C[C@]4(C)[C@H]3CC[C@@]21C` the figure was 5.66; with `C[C@@H]1C[C@@H]2[C@H](CC[C@]3(C)[C@@H](O)CC[C@@H]23)[C@@]2(C)CCC(=O)C[C@H]12`, 4.26; with `C[C@]12CC[C@H]3[C@@H](C[C@@H](F)C4=CC(=O)CC[C@@]43C)[C@@H]1CC[C@@H]2O`, 3.53.
On to `C[C@]12CC[C@H]3[C@@H](CCC4=CC(=O)CC[C@@]43C)[C@@H]1CC[C@@H]2O[Si](C)(C)C`, for which the logP is 3.95.
In the case of `C[C@]12CCC(=O)C=C1CC[C@@H]1[C@@H]2[C@@H](O)C[C@@]2(C)[C@H]1CC[C@]2(C)O`, the logP is 2.93.
The compound `C[C@]12CCC(=O)C[C@@H]1CC[C@H]1C3=CC[C@H](O)[C@@]3(C)CC[C@@H]12` came in with a logP of 3.5.
The figure for `C[C@]12C[C@H](O)[C@H]3[C@@H](CCC4=CC(=O)CC[C@@]43C)[C@@H]1CC[C@@H]2O` is 2.85; for `COC[C@@H]1C[C@@]2(C)[C@@H](CC[C@@H]3[C@@H]2CC[C@]2(C)[C@@H](O)CC[C@@H]32)CC1=O` it is 3.77.
Compound `CCCO[C@@]1(C)CC[C@H]2[C@@H]3C[C@H](C)[C@H]4CC(=O)[C@H](C)C[C@]4(C)[C@H]3CC[C@@]21C` had a logP of 5.99.
`CCOC1(O[C@H]2CC[C@H]3[C@@H]4CC[C@H]5CC(=O)CC[C@]5(C)[C@H]4CC[C@]23C)CCCC1` displayed a logP of 6.02.
The figure for `C[C@H]1C/C(=N\O)C[C@@H]2CC[C@@H]3[C@H](CC[C@@]4(C)[C@H]3CC[C@]4(C)O)[C@]21C` is 5; for `C[C@@H]1CC2=CC(=O)CC[C@]2(C)[C@H]2CC[C@]3(C)C(=O)CC[C@H]3[C@H]12` it is 4.69; for `C[C@]12CC[C@H]3[C@@H](CCC4=CC(=O)[C@H](F)C[C@@]43C)[C@@H]1CC[C@@H]2O` it is 3.86.
With `C[C@]12CC[C@H]3[C@@H](CCC4=CC(=O)CC[C@@]43C)[C@@H]1CC[C@@H]2OC(=O)C(F)Cl` (stereo partly drawn) the figure was 4.7; with `C[C@]12C[C@H](O)CC[C@@H]1CC[C@@H]1[C@@H]2CC[C@@]2(C)[C@H]1CC[C@]2(C)O`, 3.8.
The figure for `CC(=O)O[C@H]1CC[C@H]2[C@@H]3CCC4=C(Cl)C(=O)CC[C@]4(C)[C@H]3[C@@H](O)C[C@]12C` is 2.88; for `CC(=O)O[C@H]1CC[C@H]2[C@@H]3CCC4=C(O)C(=O)CC[C@]4(C)[C@H]3CC[C@]12C` it is 3.06; for `C[C@]12C[C@H]3O[C@H]3C[C@@H]1CC[C@@H]1[C@@H]2CC[C@]2(C)[C@@H](O)CC[C@@H]12` it is 3.5.
With `COC1(O[C@H]2CC[C@H]3[C@@H]4CC[C@H]5CC(=O)CC[C@]5(C)[C@H]4CC[C@]23C)CCCC1`, the logP worked out at 5.68.
With `CC(=O)O[C@H]1CC[C@H]2[C@@H]3CCC4=CC(=O)CC[C@]4(C)[C@H]3CC[C@]12C` the figure was 4.2; with `CC1=C[C@@]2(C)C(=CC1=O)C=C[C@@H]1[C@@H]2CC[C@@]2(C)[C@H]1CC[C@]2(C)O`, 4.01.
In turn, `C[C@]12C[C@@H](F)C(=O)C[C@@H]1CC[C@@H]1[C@@H]2CC[C@]2(C)[C@@H](O)CC[C@@H]12` yielded a logP of 3.96.
The figure for `C[C@H]1C[C@@H]2[C@H](CC[C@@]3(C)[C@H]2CC[C@]3(C)O)[C@@]2(C)CCC(=O)C[C@H]12` is 4.34; for `CC(=O)O[C@H]1CC[C@H]2[C@@H]3CCC4=C(Cl)C(=O)CC[C@]4(C)[C@H]3CC[C@]12C` it is 3.87; for `C[C@H]1C[C@@H]2[C@H](CC[C@]3(C)[C@@H](O)CC[C@@H]23)[C@@]2(C)CCC(=O)C[C@H]12` it is 4.26.
For the compound `C[C@]12CC[C@H]3[C@@H](CCC4=CC(=O)CC[C@@]43C)[C@@H]1CC[C@@H]2OC(=O)C(Cl)Cl`, the logP is 5.04.
Turning to `C[C@]12C[C@@H]3O[C@@H]3C[C@@H]1CC[C@@H]1[C@@H]2CC[C@]2(C)[C@@H](O)CC[C@@H]12`, the logP stood at 4.5.
As to `C[C@@H]1C[C@]2(C)C3=CC[C@@]4(C)C(CC[C@]4(C)O)[C@@H]3CC[C@H]2CC1=O` (stereo partly drawn), the logP is 4.14.
With `C[C@H]1C[C@@H]2[C@H](CC[C@@]3(C)[C@H]2CC[C@]3(C)O)[C@@]2(C)CCC(=O)C=C12` the figure was 4.24; with `C[C@]12CCC(=O)C=C1CC[C@@H]1[C@@H]2C(=O)C[C@]2(C)C(=O)CC[C@@H]12` [ADRENOTERONE], 3.75.
Turning to `C[C@]12CC[C@@H](O)C[C@@H]1CC[C@@H]1[C@@H]2CC[C@]2(C)[C@@H](O)CC[C@@H]12` [ANDROSTANDIOL], the logP came to 5.49.
On to `C[C@@H]1CC2=CC(=O)CC[C@]2(C)[C@H]2CC[C@@]3(C)[C@@H](CC[C@]3(C)O)[C@H]12` [BOLASTERONE], for which the logP amounted to 4.24.
In turn, `C[C@@H]1C[C@@]2(C)[C@@H](CC[C@@H]3[C@@H]2CC[C@]2(C)[C@@H](O)CC[C@@H]32)CC1=O` [DROMOSTANOLONE] displayed a log partition coefficient (logP) of 4.5.
With `C[C@]12CCC(=O)C[C@@H]1CC[C@@H]1[C@@H]2CC[C@@]2(C)[C@H]1CC[C@]2(C)O` [MESTANOLONE] the figure was 4.01; with `C[C@]12CCC(=O)C=C1CC[C@@H]1[C@@H]2CC[C@@]2(C)[C@H]1CC[C@]2(C)O` [METHYLTESTOSTERONE], 3.91.
`C[C@]12CC[C@H]3[C@@H](CCC4=CC(=O)CC[C@@]43C)[C@@H]1CC[C@@H]2O` [TESTOSTERONE] registered a logP of 2.53.
